Data as given in the NIST ThermoML archive (doi:10.1016/j.jct.2012.05.023).
Numbers after ± are expanded uncertainties.

How the values were obtained:
[1] = 101.3 kPa, Liquid; for speed of sound: Sing-around technique in a fixed-path interferometer; for mass density: Vibrating tube method
[2] = refractive index (Na D-line) (dimensionless); settings: 101.33 kPa, Liquid, Standard Abbe refractometry
[3] = refractive index (Na D-line) (dimensionless); xn = mol fraction of the nth substance listed; settings: 101.3 kPa, Liquid, Standard Abbe refractometry, x2 = 0
[4] = xn = mol fraction of the nth substance listed; settings: 101.3 kPa, Liquid, x2 = 0; for speed of sound: Sing-around technique in a fixed-path interferometer; for mass density: Vibrating tube method

c1ccc2c(c1)CCCC2 [1,2,3,4-tetrahydronaphthalene]
Settings | mass density, [1] [kg/m3] | refractive index, [2] | speed of sound, [1] [m/s]
293.15 K | 969.52 ± 0.23 | 1.54155 ± 0.00037 | 1489.5 ± 1.3
303.15 K | 961.59 ± 0.23 | 1.53687 ± 0.00037 | 1450.1 ± 1.2
313.15 K | 953.66 ± 0.23 | 1.53216 ± 0.00037 | 1411.5 ± 1.2
323.15 K | 945.72 ± 0.23 | 1.52752 ± 0.00037 | 1373.6 ± 1.2
333.15 K | 937.77 ± 0.23 | 1.52274 ± 0.00037 | 1336.4 ± 1.2
343.15 K | 929.8 ± 0.23 | 1.51795 ± 0.00037 | 1299.8 ± 1.2

CCCCCCCCCCCC [dodecane]
Settings | mass density, [1] [kg/m3] | refractive index, [2] | speed of sound, [1] [m/s]
293.15 K | 748.92 ± 0.24 | 1.42218 ± 0.00037 | 1297.9 ± 1.2
303.15 K | 741.66 ± 0.24 | 1.41784 ± 0.00037 | 1259.5 ± 1.2
313.15 K | 734.38 ± 0.24 | 1.41346 ± 0.00037 | 1221.6 ± 1.2
323.15 K | 727.07 ± 0.24 | 1.40914 ± 0.00037 | 1184.4 ± 1.2
333.15 K | 719.73 ± 0.24 | 1.40479 ± 0.00037 | 1147.8 ± 1.2
343.15 K | 712.34 ± 0.25 | 1.40018 ± 0.00037 | 1111.8 ± 1.2

CCCCCCCCCCCC [dodecane] + c1ccc2c(c1)CCCC2
Settings | mass density, [4] [kg/m3] | refractive index, [3] | speed of sound, [4] [m/s]
293.15 K | 748.92 ± 0.24 | 1.42218 ± 0.00037 | 1297.9 ± 1.2
303.15 K | 741.66 ± 0.24 | 1.41784 ± 0.00037 | 1259.5 ± 1.2
313.15 K | 734.38 ± 0.24 | 1.41346 ± 0.00037 | 1221.6 ± 1.2
323.15 K | 727.07 ± 0.24 | 1.40914 ± 0.00037 | 1184.4 ± 1.2
333.15 K | 719.73 ± 0.24 | 1.40479 ± 0.00037 | 1147.8 ± 1.2
343.15 K | 712.34 ± 0.25 | 1.40018 ± 0.00037 | 1111.8 ± 1.2
